The test has as its system P388 leukemia ip, CD2F1 mice, survival T/C. The test can be described thus: NCI In Vivo Anticancer Drug Screen. Data for tumor model P388 Leukemia (intraperitoneal) in CD2F1 (CDF1) mice. The note with it: endpoint: median survival time, higher = longer survival. In a few lines:
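Mice carrying the transplanted tumor received test compound or vehicle. Survival was recorded in each group, and the value is the treated-group measurement divided by that of the vehicle-treated control group.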

Setting [1] is: dose: 60.0 mg/kg/injection, schedule: Q01DX005 (ip), vehicle: saline.
[2] abbreviates: dose: 120.0 mg/kg/injection, schedule: Q01DX005 (ip), vehicle: saline.
The mark [3] stands for this setting: dose: 240.0 mg/kg/injection, schedule: Q01DX005 (ip), vehicle: saline.
Where [4] appears, read: dose: 50.0 mg/kg/injection, schedule: Q01DX009 (ip), vehicle: Klucel (hydroxypropylcellulose) (HPC).
Where [5] appears, read: dose: 100.0 mg/kg/injection, schedule: Q01DX009 (ip), vehicle: Klucel (hydroxypropylcellulose) (HPC).
[6] abbreviates: dose: 200.0 mg/kg/injection, schedule: Q01DX009 (ip), vehicle: Klucel (hydroxypropylcellulose) (HPC).
Setting [7] is: dose: 25.0 mg/kg/injection, schedule: Q01DX009 (ip), vehicle: saline with Tween-80.
[8] abbreviates: dose: 50.0 mg/kg/injection, schedule: Q01DX009 (ip), vehicle: saline with Tween-80.
The mark [9] stands for this setting: dose: 100.0 mg/kg/injection, schedule: Q01DX009 (ip), vehicle: saline with Tween-80.
The mark [10] stands for this setting: dose: 60.0 mg/kg/injection, schedule: Q01DX005 (ip), vehicle: saline with Tween-80.
Setting [11] is: dose: 120.0 mg/kg/injection, schedule: Q01DX005 (ip), vehicle: saline with Tween-80.
Where [12] appears, read: dose: 240.0 mg/kg/injection, schedule: Q01DX005 (ip), vehicle: saline with Tween-80.
Setting [13] is: dose: 12.5 mg/kg/injection, schedule: Q01DX009 (ip), vehicle: other.
Setting [14] is: dose: 50.0 mg/kg/injection, schedule: Q01DX005 (ip), vehicle: Klucel (hydroxypropylcellulose) (HPC).
The mark [15] stands for this setting: dose: 100.0 mg/kg/injection, schedule: Q01DX005 (ip), vehicle: Klucel (hydroxypropylcellulose) (HPC).
Where [16] appears, read: dose: 200.0 mg/kg/injection, schedule: Q01DX005 (ip), vehicle: Klucel (hydroxypropylcellulose) (HPC).

Several values for one entry are separate records, joined by “and”; a condition that tells them apart may be missing. Equal values may be shown once. Toxic doses and inconclusive results are not listed.

On to `CC(=N\O)/C(C)=N/Nc1ccccc1Cl`, for which the T/C is, setting by setting: (dose: 50.0 mg/kg/injection, schedule: Q01DX009 (ip), vehicle: saline) 98 % of control; (dose: 100.0 mg/kg/injection, schedule: Q01DX009 (ip), vehicle: saline) 104 % of control; (dose: 200.0 mg/kg/injection, schedule: Q01DX009 (ip), vehicle: saline) 89 % of control.
Take `O=S(=O)(O)CC(O)CNC(CO)(CO)CO` (stereo not drawn): the T/C is, setting by setting: under setting [1], 104 % of control; under setting [2], 98 % of control; under setting [3], 104 % of control.
Regarding `CCOC(=O)C(Cc1csc2ccc(Cl)cc12)(NC(C)=O)C(=O)OCC`, the T/C runs as follows: under setting [4], 96 % of control; under setting [5], 96 % of control; under setting [6], 94 % of control.
As for `CCCC(OC(C)=O)C(C)[N+](=O)[O-]` (stereo not drawn), the T/C by setting is: (dose: 12.5 mg/kg/injection, schedule: Q01DX009 (ip), vehicle: saline with Tween-80) 91 % of control; under setting [7], 100 % of control; under setting [8], 102 % of control; under setting [9], 104 % of control; (dose: 200.0 mg/kg/injection, schedule: Q01DX009 (ip), vehicle: saline with Tween-80) 112 % of control.
`O=CNc1ccc(C(=O)O)c(O)c1`: the T/C is, setting by setting: under setting [10], 98 % of control; under setting [11], 93 % of control; under setting [12], 90 % of control.
Take `COC(=O)Nc1cn2nc(C)sc2n1`: the T/C runs as follows: under setting [10], 99 % of control; under setting [11], 94 % of control; under setting [12], 91 % of control.
With `CNC(=S)N/N=C(C)/C=C/c1ccc(OC)cc1`, the T/C (dose: 100.0 mg/kg/injection, schedule: Q04DX002 (ip), vehicle: Klucel (hydroxypropylcellulose) (HPC)) was 104 % of control; the T/C (dose: 200.0 mg/kg/injection, schedule: Q04DX002 (ip), vehicle: Klucel (hydroxypropylcellulose) (HPC)) was 100 % of control; the T/C (dose: 400.0 mg/kg/injection, schedule: Q04DX002 (ip), vehicle: Klucel (hydroxypropylcellulose) (HPC)) was 91 % of control.
On to `CCc1nc(N)nc(N)c1-c1ccc(Cl)c(NN=NC)c1`, for which the T/C (dose: 12.5 mg/kg/injection, schedule: Q01DX005 (ip), vehicle: saline with Tween-80) was 109 % of control; the T/C (dose: 25.0 mg/kg/injection, schedule: Q01DX005 (ip), vehicle: saline with Tween-80) is 108 % of control; the T/C (dose: 50.0 mg/kg/injection, schedule: Q01DX005 (ip), vehicle: saline with Tween-80) is 105 % of control and 110 % of control; the T/C (dose: 100.0 mg/kg/injection, schedule: Q01DX005 (ip), vehicle: saline with Tween-80) is 112 % of control.
For `CCOc1ccccc1NC(=O)NCC(=O)NNC(=O)Nc1ccc(Cl)c([N+](=O)[O-])c1`, the T/C under setting [10] was 93 % of control, the T/C under setting [11] was 98 % of control and the T/C under setting [12] is 92 % of control.
As for `COc1cccc2c1C(=O)c1c(O)c3c(c(O)c1C2=O)CC(=O)CC3OC1CC(NC(=O)C(F)(F)F)C(O)C(C)O1` (stereo not drawn), the T/C runs as follows: (dose: 1.56 mg/kg/injection, schedule: Q01DX009 (ip), vehicle: other) 104 % of control; (dose: 3.13 mg/kg/injection, schedule: Q01DX009 (ip), vehicle: other) 102 % of control; (dose: 6.25 mg/kg/injection, schedule: Q01DX009 (ip), vehicle: other) 98 % of control; under setting [13], 90 % of control.
On to `CCCCCCCCn1c(Cl)c(C(=O)O)c2ccccc21`, for which the T/C was 95 % of control (dose: 100.0 mg/kg/injection, schedule: Q01DX001 (ip), vehicle: Klucel (hydroxypropylcellulose) (HPC)); 86 % of control (dose: 200.0 mg/kg/injection, schedule: Q01DX001 (ip), vehicle: Klucel (hydroxypropylcellulose) (HPC)); 86 % of control (dose: 400.0 mg/kg/injection, schedule: Q01DX001 (ip), vehicle: Klucel (hydroxypropylcellulose) (HPC)).
In the case of `O=C1OCC23CC(=O)C(O)(c4oc(CO)cc(=O)c4O)C(CC12)O3` (stereo not drawn), the T/C reads like this: under setting [7], 97 % of control; under setting [8], 100 % of control; under setting [9], 100 % of control.
`Cc1ccc(-c2cc(-c3cc(-c4ccc(C)cc4)nc(N)n3)nc(N)n2)cc1`: the T/C is 90 % of control under setting [1], 96 % of control under setting [2] and 97 % of control under setting [3].
For the compound `COc1ccc(/C=N/NC(=O)CNC(=O)Nc2n[nH]c(=S)s2)cc1`, the T/C reads like this: under setting [14], 100 % of control; under setting [15], 104 % of control; under setting [16], 100 % of control.
For the compound `COc1c2ccoc2cc2oc(=O)ccc12`, the T/C by setting is: under setting [14], 102 % of control; under setting [15], 96 % of control; under setting [16], 93 % of control.
Turning to `COc1cc2c(c(O)c1O)C(=O)c1c(O)cc(C)cc1C2=O`, the T/C by setting is: (dose: 5.0 mg/kg/injection, schedule: Q01DX009 (ip), vehicle: saline with Tween-80) 108 % of control; (dose: 10.0 mg/kg/injection, schedule: Q01DX009 (ip), vehicle: saline with Tween-80) 117 % of control; (dose: 20.0 mg/kg/injection, schedule: Q01DX009 (ip), vehicle: saline with Tween-80) 108 % of control.
Take `CC(C)(F)c1nc2cc3ccccc3cc2[nH]c1=O`: the T/C was 98 % of control (dose: 100.0 mg/kg/injection, schedule: Q01DX001 (ip), vehicle: saline with Tween-80) and 90 % of control (dose: 200.0 mg/kg/injection, schedule: Q01DX001 (ip), vehicle: saline with Tween-80).
As to `O=C(O)CCC1(CCC(=O)O)OCCO1.[Ag]`, the T/C (dose: 9.5 mg/kg/injection, schedule: Q01DX009 (ip), vehicle: saline sonified) is 100 % of control; the T/C (dose: 19.0 mg/kg/injection, schedule: Q01DX009 (ip), vehicle: saline sonified) is 109 % of control; the T/C (dose: 38.0 mg/kg/injection, schedule: Q01DX009 (ip), vehicle: saline sonified) is 86 % of control.
For the compound `CC1(c2cccc(N(CCCl)CCCl)c2)NC(=O)NC1=O` (stereo not drawn), the T/C under setting [7] was 166 % of control; the T/C under setting [8] was 184 % of control and 204 % of control; the T/C under setting [9] was 90 % of control.
In the case of `O=C1CSC(c2ccccc2F)N1c1nncs1` (stereo not drawn), the T/C by setting is: (dose: 30.0 mg/kg/injection, schedule: Q01DX005 (ip), vehicle: Klucel (hydroxypropylcellulose) (HPC)) 100 % of control; (dose: 60.0 mg/kg/injection, schedule: Q01DX005 (ip), vehicle: Klucel (hydroxypropylcellulose) (HPC)) 99 % of control; (dose: 120.0 mg/kg/injection, schedule: Q01DX005 (ip), vehicle: Klucel (hydroxypropylcellulose) (HPC)) 100 % of control; (dose: 240.0 mg/kg/injection, schedule: Q01DX005 (ip), vehicle: Klucel (hydroxypropylcellulose) (HPC)) 110 % of control.
`COc1cc2ccc3c(c2cc1OC)C=[N+](C)CC3`: the T/C reads like this: (dose: 44.0 mg/kg/injection, schedule: Q01DX009 (ip), vehicle: saline with Tween-80) 100 % of control; (dose: 66.0 mg/kg/injection, schedule: Q01DX009 (ip), vehicle: saline with Tween-80) 109 % of control; under setting [9], 109 % of control; (dose: 150.0 mg/kg/injection, schedule: Q01DX009 (ip), vehicle: saline with Tween-80) 113 % of control.
Turning to `CC1(C)C2CCC(CN)C1C2` (stereo not drawn), the T/C was 96 % of control under setting [13]; 97 % of control (dose: 25.0 mg/kg/injection, schedule: Q01DX009 (ip), vehicle: other); 100 % of control (dose: 50.0 mg/kg/injection, schedule: Q01DX009 (ip), vehicle: other).
For the compound `COc1ccc2c(C)cc(N/N=C/c3ccc([N+](=O)[O-])o3)nc2c1`, the T/C was 100 % of control under setting [14], 101 % of control under setting [15] and 90 % of control under setting [16].
Turning to `O=C1CCc2nc3ccccc3c(=O)n21`, the T/C by setting is: under setting [4], 96 % of control; under setting [5], 96 % of control; under setting [6], 94 % of control; (dose: 400.0 mg/kg/injection, schedule: Q01DX009 (ip), vehicle: Klucel (hydroxypropylcellulose) (HPC)) 100 % of control.

The values above are taken from PubChem BioAssay AID330 (DTP/NCI, 2004).
